Source: EPA's ToxValDB 9.5 (doi:10.2903/j.efsa.2013.3111)
Converted amounts (≈) assume the structure as drawn.

Legend:
Apis mellifera = conditions: acute; duration: 48 hours; oral; unspecified; mortality
Colinus virginianus = conditions: acute, oral, mortality
Bibionidae = conditions: chronic/long-term; duration: 28 days; other
Daphnia magna = conditions: chronic/long-term; duration: 21 days; reproduction
Typhlodromus pyri = assay: LR50; higher = less toxic; conditions: duration: 7 days, mortality

With `CC(C)CC(C)c1sccc1NC(=O)c1cn(C)nc1C(F)(F)F` (stereo unspecified) [Penthiopyrad] the LD50 (Rattus norvegicus; acute, oral, mortality) was > 2000 mg/kg, the NOAEL (Rattus norvegicus; chronic, body weight) was 54 mg/kg-day and the LD50 (Apis mellifera) was > 500 µg/piece. The LC50 (Pimephales promelas; acute, duration: 96 hours, mortality) was 0.29 µg/mL (≈ 0.807 µM), the NOAEC (Pimephales promelas; chronic/long-term, duration: 33 days, growth) was 51 µg/L and the LD50 (Colinus virginianus; diet) was > 1910 mg/kg-day. The LD50 (Colinus virginianus) was > 2250 mg/kg-day, the NOAEC (Bibionidae) was 50 mg/kg and the LOAEL (Anas platyrhynchos; reproductive, reproduction) was 719 mg/kg-day. For the same compound, the NOAEL (Anas platyrhynchos; reproductive, reproduction) was 207 mg/kg-day, the LC50 (Anas platyrhynchos; short-term, oral, feed, no effects) was > 5790 mg/kg-day and the NOAEC (Daphnia magna) was 471 µg/L. The LC50 (Tagia sp.; acute, duration: 14 days, mortality) was > 1000 mg/kg, the NOEC (Tagia sp.; chronic/long-term, duration: 56 days, reproduction) was ≥ 48 mg/kg and the LR50 (Typhlodromus pyri; acute) was 238 g/ha. It also gave an LR50 (Typhlodromus pyri; chronic/long-term) of 124 g/ha.
